What all share (assay): NCI anticancer screen, dose series, 48 h
Assay [1] relates to NCI-H460 lung.
In assay [2] the test system is SK-MEL-2 melanoma.
For assay [3], the system named is SW-620 colon.
For assay [4], the system named is SNB-19 CNS.
Assay [5] deals with HOP-62 NSCLC.
Assay [6] deals with SK-MEL-28 melanoma.
For assay [7], the system named is K-562 leukemia.
Assay [8] relates to EKVX NSCLC.
In assay [9] the test system is HCT-15 colon.
In assay [10] the test system is MDA-MB-435.

This note sets out measurements from PubChem BioAssay (NCI).

Several values for one entry are separate records, joined by “and”; a condition that tells them apart may be missing. Identical values can stand only once.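 These data come from cells grown in 96-well plates and exposed to compound for 48 hours at five concentrations. At the GI50, growth is halved. The concentration for full growth arrest is given as TGI.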 Where a SMILES comes first, the peptide text is derived from it. [ ]: non-standard residue; d: D form. Ac5c = NC1(C(=O)O)CCCC1

Consider `O=c1ccn(C2OC(CO)C(O)C2F)c(=O)[nH]1` (stereo unspecified), for which the GI50 in assay [1], in [2], in assay [3], in assay [4], in [5] and in assay [6] was above 1000 µM throughout. The GI50 in [7], in assay [8], in assay [9] and in assay [10] was above 1000 µM each time. In addition, the TGI in assay [1], in assay [2], in [3], in assay [4], in assay [5] and in assay [6] was above 1000 µM in each case. The TGI in assay [7], in [8], in assay [9] and in [10] was above 1000 µM throughout.
In the case of `CC(O)c1cccc(NCc2c3ccccc3c(=O)n3c2oc2ccccc23)c1` (stereo unspecified), the GI50 is above 100 µM in assay [1]; 6.31 µM in assay [2]; 13.6 µM in [3]; 16.4 µM in assay [4]; 3.01 µM in assay [5]; 6 µM in [6]. Further, the GI50 in assay [7] was above 100 µM; in [8] it was 3.87 µM; in [9] it was 5.56 µM; in [10] it was 18.4 µM. In addition, the TGI in assay [1] was above 100 µM; in assay [2], 46.9 µM; in assay [3] it was above 100 µM; in [4], 88.3 µM; in [5] it was 13.6 µM; in assay [6], 35.6 µM. Moreover, the TGI is above 100 µM in assay [7], 19.3 µM in [8], 28.8 µM in [9] and above 100 µM in [10].
For the molecule `CCN(CC)CC(O)CNc1ccc(NCC2CO2)c2c1C(=O)c1ccccc1C2=O` (stereo unspecified), the GI50 is 0.39 µM in assay [1]; 0.0713 µM in assay [3]; 0.297 µM in [5]; 0.631 µM in assay [6]; 0.0135 µM in assay [7]; 0.417 µM in assay [9]. Besides, in assay [10], the GI50 is 0.133 µM. Besides, the TGI is 3.16 µM in [1]; 0.785 µM and 0.839 µM in assay [2]; 0.797 µM in assay [3]; 7.52 µM in [4]; 4.02 µM in assay [5]; 3.5 µM in assay [6]. In addition, the values for the TGI in assay [8], in assay [9] and in [10] were 4.72 µM, 6.35 µM and 0.394 µM, respectively.
For the molecule `O=C1c2ccccc2-c2c1c1ccccc1c(=O)n2CCCNCCCn1ccnc1`, the GI50 was 1.27 µM in assay [1]; 2.56 µM in assay [2]; 0.24 µM in assay [3]; 1.47 µM in assay [4]; 0.29 µM in assay [5]; 2.94 µM in assay [6]. Also, the GI50 is 0.529 µM in assay [7], 4.75 µM in assay [8], 0.44 µM in [9] and 1.72 µM in [10]. Besides, the TGI in assay [1] came to 43.1 µM; in [2], 8.17 µM; in assay [3] it was 1.82 µM; in assay [4], 13.1 µM; in assay [5], 1.13 µM; in [6], 8.92 µM. Further, the TGI in [7] was determined as 2.65 µM; in assay [8], 12.2 µM; in [9], 10.1 µM; in assay [10], 5.51 µM.
Take `O=C1Nc2ccc(C(=O)c3ccco3)cc2/C1=C/c1cc(Cl)c(O)c(Cl)c1`: the GI50 in [1] was 4.23 µM; in assay [2] it was 2.86 µM; in assay [3] it was 4.8 µM; in [4], 8.52 µM; in [5], 7.45 µM; in assay [6], 4.17 µM. Also, the GI50 in [7] is 9.05 µM; in assay [8], 11 µM; in assay [9], 4.16 µM; in assay [10], 4.11 µM. In addition, the TGI in [1] was above 22.8 µM; in assay [2], 7.21 µM; in assay [3], above 23.8 µM; in assay [4], above 25 µM; in [5] it was above 22.1 µM; in assay [6], above 18.1 µM. The TGI in [7] was above 25 µM; in [8], above 25 µM; in assay [9], above 25 µM; in assay [10], 24.2 µM.
For `CC(=O)Nc1ccc(C(=O)NN2C(=O)C(Cl)C2c2ccc(Cl)cc2)cc1` (stereo unspecified), the TGI in assay [1] is above 100 µM; in assay [2], above 100 µM; in [3], above 100 µM; in assay [4] it was 59.2 µM; in assay [5], 57.8 µM; in [6], above 100 µM. The TGI in assay [7], in [8], in [9] and in assay [10] was above 100 µM each time.
Consider `NC1(C(=O)NC2(C(=O)O)CCCC2)CCCC1` (H-[Ac5c]-[Ac5c]-OH), for which the TGI in [1], in [2], in assay [3], in assay [4], in assay [5] and in assay [6] was above 100 µM each time. Besides, the TGI in [7], in assay [8], in [9] and in assay [10] was above 100 µM each time.
Take `CCOC(=O)c1cc(C#N)c(=O)n(/N=C(\C)c2ccncc2)c1O`: the GI50 in [1], in assay [2], in assay [3], in assay [4], in [5] and in assay [6] was above 100 µM in each case. Besides, the GI50 in [7], in [8], in assay [9] and in [10] was above 100 µM in each case. Further, the TGI in assay [1], in assay [2], in assay [3], in assay [4], in [5] and in [6] was above 100 µM throughout. For the same molecule, the TGI in [7], in assay [8], in assay [9] and in assay [10] was above 100 µM in each case.
